Data on one molecule can be found in paper PMC7721803, “Development of a penem antibiotic against Mycobacteroides abscessus” (Communications Biology, 2020).

The nature of the data set: in vivo. Also on record: species or system BALB/c mice. The note with it: mouse, sc. As to the method:
All procedures involving mice were approved by the Animal Care and Use Committee of Johns Hopkins University. […] Blood was sampled from three mice per group per time point by mandibular vein puncture or cardiac puncture at the following time points: 5, 15, 30, 60, 120, and 240 min post-dose. Plasma was separated in heparin-containing tubes and frozen. […] Concentration–time data were analyzed by standard non-compartmental and compartmental techniques using WinNonlin (version 7.0; Pharsight, Mountain View, CA). A one-compartmental model was used to perform simulations to predict the plasma concentration–time profile after subcutaneous doses of 150, 300, and 450 mg/kg, alone and in combination with probenecid. A plasma free drug fraction of 2% of the total drug concentration was included in the simulations.

In general, half-life refers to the time needed for the level to fall by half in the phase considered. Usually AUC(0-t) stands for the area under the concentration-time curve up to a stated or last time point. As usually defined, the Cmax is the peak of the concentration-time curve. As to `C[C@@H](O)C1C(=O)N2C(C(=O)O)=C(SC3CN(C4=NCCS4)C3)SC12` (stereo in doubt) [T405], the “Half-life, effect of co-administration with cilastatin” value is given as “not affected”. Also, the half-life (female, BALB/c) is 1.26 h. Under “female, BALB/c, 25 mg/kg”, the AUC(0-t) came to 205 µg·h/mL, the maximum concentration (Cmax) is 164 µg/mL and the half-life was 0.82 h.
